Data from US12606552B2, “Bifunctional compound, preparation method therefor, and use thereof” (SUZHOU KINTOR PHARMACEUTICALS, INC., priority 2020, dated 2026).

Target: T1, AR (Homo sapiens, UniProt P10275, T878A)
T1 sequence (P10275 1-920 T878A): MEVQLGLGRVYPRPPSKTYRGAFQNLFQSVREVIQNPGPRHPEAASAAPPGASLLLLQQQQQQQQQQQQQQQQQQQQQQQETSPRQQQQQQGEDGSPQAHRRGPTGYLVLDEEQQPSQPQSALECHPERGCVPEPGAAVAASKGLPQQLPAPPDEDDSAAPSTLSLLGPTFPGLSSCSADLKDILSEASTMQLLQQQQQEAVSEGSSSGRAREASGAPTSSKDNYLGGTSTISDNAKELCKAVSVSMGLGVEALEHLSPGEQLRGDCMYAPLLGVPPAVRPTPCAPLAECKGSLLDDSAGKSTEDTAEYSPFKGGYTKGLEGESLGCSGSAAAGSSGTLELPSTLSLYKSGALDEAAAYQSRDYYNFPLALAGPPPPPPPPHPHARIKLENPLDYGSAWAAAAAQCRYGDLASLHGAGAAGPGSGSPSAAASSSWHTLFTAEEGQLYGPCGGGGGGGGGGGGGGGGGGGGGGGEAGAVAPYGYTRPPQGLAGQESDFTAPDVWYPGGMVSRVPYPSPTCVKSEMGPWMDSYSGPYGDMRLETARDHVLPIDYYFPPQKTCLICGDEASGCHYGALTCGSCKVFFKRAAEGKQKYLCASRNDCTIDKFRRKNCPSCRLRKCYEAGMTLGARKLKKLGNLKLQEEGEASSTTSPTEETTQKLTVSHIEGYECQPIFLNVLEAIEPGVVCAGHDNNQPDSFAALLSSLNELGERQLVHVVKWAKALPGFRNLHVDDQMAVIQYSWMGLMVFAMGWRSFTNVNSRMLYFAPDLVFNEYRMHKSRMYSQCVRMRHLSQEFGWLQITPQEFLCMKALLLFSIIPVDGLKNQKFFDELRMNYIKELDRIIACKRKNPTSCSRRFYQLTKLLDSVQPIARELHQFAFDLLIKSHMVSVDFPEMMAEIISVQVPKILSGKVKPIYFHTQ
Assay: Effects of compounds on AR expression in LNCaP cells (ELISA, DC50)
Format: cell-based
Set-up: Measurement of the Effects of Drugs on the Expression of AR in Cells by ELISA Method; endogenous in cells; host or cells: LNCaP
Conditions: 24 hours of drug treatment, AR by ELISA
Experimental: Activity Assay Example 1: Effects of Compounds on AR Expression in LNCaP Cells
1. Cell Line and Cell Culture
Human prostate cancer cells LNCaP (Shanghai Chinese Academy of Sciences Cell Bank). LNCaP was cultured in 1640 medium containing 10% fetal bovine serum. The cells grow in clusters, with weak adhesion to the bottom of the culture flask, slow proliferation, with a multiplication time of 72 h. The cells are closely adhered to each other and need to be digested with 0.05% trypsin containing 0.025% EDTA. The cells were passaged every 3 days. The cells were cultured at 37° C. and 5% CO2 in a humidified incubator
2. Cell plating: The supernatant was discarded, and the Lncap cells in the logarithmic growth phase were taken, washed with PBS once, and added with appropriate 0.05% trypsin digestion solution to be fully digested into single cell suspension, and centrifuged, resuspended and counted to make the number of cells about 15,000 per well, then inoculated in a 96-well plate, placed at 37° C., 5% CO2 and cultured overnight for 24 h.
3. Preparation and Addition of Compound Solutions
About 2 mg of each compound was weighed and dissolved in DMSO to make the stock solution with a concentration of 10 mmol/L. Dilution process (final concentration dilution: 2, 0.667, 0.222, 0.074, 0.0245, 0.008, 0.003, 0.001, 0.0003, 0.0001 μmol/L): 10 centrifuge tubes with a volume of 1.5 mL were taken and numbered 1, 2, 3, 4, 5, 6, 7, 8, 9, and 10, 80 μL DMSO was added to tube No. 1, and 60 μL DMSO was added to tubes No. 2 to No. 10, 20 μL of the stock solution was pipetted to tube No. 1 and mixed well; 30 μL was pipetted from tube No. 1 into tube No. 2 and mixed well. 30 μL was pipetted from tube No. 2 into tube No. 3 and mixed well, and so forth, to obtain samples No. 4-10, and to obtain working solutions of compounds of different concentrations respectively. 2 μL was pipetted from the above-mentioned tubes No. 1-10 into each corresponding sterile deep-well plates, added with 198 μL of culture medium, and mixed well. 11 ul was added to each well of the 96-well cell plate cultured overnight to obtain the corresponding desired concentrations (2, 0.667, 0.222, 0.074, 0.0245, 0.008, 0.003, 0.001, 0.0003, 0.0001 μmol/L).
4. Measurement of the Effects of Drugs on the Expression of AR in Cells by ELISA Method
After 24 hours of drug treatment, the supernatant was removed, and 200 μL of PBS was added to wash cells, and then the supernatant was removed, and 100 μL of cell lysate was added to lyse cells on ice for 20 min, then the cell lysate was centrifuged at 4000 rpm for 20 min at 4° C. and the supernatant was taken for later use. The measurement steps of the supernatant were according to the ELISA kit instructions:
4.1 The slats required for the test were taken out from the sealed bag that has been equilibrated to room temperature. Please put the unused slats and desiccant back into the aluminum foil bag and compress the self-sealing strip, seal the bag, and store at 4° C.
4.2 Standards and sample diluents were added to blank wells, and different concentrations of standards (10 ul/well) and sample diluents (90 ul/well) were added to the remaining corresponding wells, and the reaction wells were sealed with sealing tape, and refrigerated at 4° C. overnight.
4.3 Primary antibody was diluted with dilution buffer to the corresponding concentration and added to each well in 100 ul/well. The reaction wells were sealed with sealing tape and incubated at 37° C. for 60 min.
4.4 Secondary antibody was diluted with dilution buffer to the corresponding concentration and added to each well in 100 ul/well. The reaction wells were sealed with sealing tape and incubated at 37° C. for 30 min.
4.5 The reaction wells were added with 100 ul/well of substrate (TMB) and incubated at room temperature for 30 min.
4.6 The reaction wells were added with 100 ul/well of stop solution, mixed well and then the OD450 value was measured with a microplate reader. […]

| SMILES | DC50 |
| --- | --- |
| CC1(C)C(=O)N(c2ccc(C#N)c(C(F)(F)F)c2F)C(=S)N1c1ccc(CCCC(=O)NCCNC(=O)COc2cccc3c2C(=O)N(C2CCC(=O)NC2=O)C3=O)nc1 (stereo not shown) [Compound A6] | > 2000 nM |
| CC1(C)C(=O)N(c2ccc(C#N)c(C(F)(F)F)c2F)C(=S)N1c1ccc(-c2ccc(OCCNC(=O)COc3cccc4c3C(=O)N(C3CCC(=O)NC3=O)C4=O)cc2)cc1 (stereo not shown) [Compound A22] | 73.7 nM |
| CC1(C)C(=O)N(c2ccc(C#N)c(C(F)(F)F)c2F)C(=S)N1c1ccc(-c2ccc(OCCNC(=O)COc3cccc4c3C(=O)N(C3CCC(=O)NC3=O)C4=O)cc2)nc1 (stereo not shown) [Compound A23] | 721 nM |
| CC1(C)C(=O)N(c2ccc(C#N)c(C(F)(F)F)c2F)C(=S)N1c1ccc(C2CC2C(=O)NCCNC(=O)COc2cccc3c2C(=O)N(C2CCC(=O)NC2=O)C3=O)nc1 (stereo not shown) [Compound A24] | > 2000 nM |
| CC1(C)C(=O)N(c2ccc(C#N)c(C(F)(F)F)c2F)C(=S)N1c1ccc(C2CC2C(=O)NCCCNC(=O)COc2cccc3c2C(=O)N(C2CCC(=O)NC2=O)C3=O)nc1 (stereo not shown) [Compound A25] | > 2000 nM |
| CC1(C)C(=O)N(c2ccc(C#N)c(C(F)(F)F)c2F)C(=S)N1c1ccc(C2CC2C(=O)NCCCCNC(=O)COc2cccc3c2C(=O)N(C2CCC(=O)NC2=O)C3=O)nc1 (stereo not shown) [Compound A26] | > 2000 nM |
| CC1(C)C(=O)N(c2ccc(C#N)c(C(F)(F)F)c2F)C(=S)N1c1ccc(C#CC2CCN(CCNC(=O)COc3cccc4c3C(=O)N(C3CCC(=O)NC3=O)C4=O)CC2)cc1 (stereo not shown) [Compound A27] | 34.8 nM |
| CC1(C)C(=O)N(c2ccc(C#N)c(C(F)(F)F)c2F)C(=S)N1c1ccc([C@@H]2C[C@H]2C(=O)NCCCCNC(=O)COc2cccc3c2C(=O)N(C2CCC(=O)NC2=O)C3=O)nc1 (stereo partly shown) [Compound A28] | > 2000 nM |
| CC1(C)C(=O)N(c2ccc(C#N)c(C(F)(F)F)c2F)C(=S)N1c1ccc(-c2ccc(C(=O)NCCNC(=O)COc3cccc4c3C(=O)N(C3CCC(=O)NC3=O)C4=O)cc2)nc1 (stereo not shown) [Compound A34] | 835 nM |
| CC1(C)C(=O)N(c2ccc(C#N)c(C(F)(F)F)c2F)C(=S)N1c1ccc(-c2ccc(OCCNC(=O)COc3ccc4c(c3)C(=O)N(C3CCC(=O)NC3=O)C4=O)cc2)nc1 (stereo not shown) [Compound A38] | 58.6 nM |
| CC1(C)C(=O)N(c2ccc(C#N)c(C(F)(F)F)c2F)C(=S)N1c1cnc(-c2ccc(OCCNC(=O)COc3cccc4c3C(=O)N(C3CCC(=O)NC3=O)C4=O)c(F)c2)c(F)c1 (stereo not shown) [Compound A39] | 19.4 nM |
| CC1(C)C(=O)N(c2ccc(C#N)c(C(F)(F)F)c2F)C(=S)N1c1cnc(-c2ccc(OCCNC(=O)COc3ccc4c(c3)C(=O)N(C3CCC(=O)NC3=O)C4=O)c(F)c2)c(F)c1 (stereo not shown) [Compound A40] | 29.8 nM |
| CC1(C)C(=O)N(c2ccc(C#N)c(C(F)(F)F)c2F)C(=S)N1c1cnc(-c2ccc(OCC(=O)NCCNc3cccc4c3C(=O)N(C3CCC(=O)NC3=O)C4=O)c(F)c2)c(F)c1 (stereo not shown) [Compound A41] | 59 nM |
| CC1(C)C(=O)N(c2ccc(C#N)c(C(F)(F)F)c2F)C(=S)N1c1cnc(-c2ccc(OC3CCN(C(=O)COc4ccc5c(c4)C(=O)N(C4CCC(=O)NC4=O)C5=O)CC3)c(F)c2)c(F)c1 (stereo not shown) [Compound A42] | 122 nM |
| CC1(C)C(=O)N(c2ccc(C#N)c(C(F)(F)F)c2F)C(=S)N1c1cnc(-c2ccc(OC3CCN(C(=O)COc4cccc5c4C(=O)N(C4CCC(=O)NC4=O)C5=O)CC3)c(F)c2)c(F)c1 (stereo not shown) [Compound A43] | 88.3 nM |
| CC1(C)C(=O)N(c2ccc(C#N)c(C(F)(F)F)c2F)C(=S)N1c1ccc(-c2ccc(OC3CCN(C(=O)COc4cccc5c4C(=O)N(C4CCC(=O)NC4=O)C5=O)C3)cc2)nc1 (stereo not shown) [Compound A44] | > 2000 nM |
| CC1(C)C(=O)N(c2ccc(C#N)c(C(F)(F)F)c2F)C(=S)N1c1ccc(-c2ccc(C(=O)N3CCN(C(=O)COc4cccc5c4C(=O)N(C4CCC(=O)NC4=O)C5=O)CC3)cc2)nc1 (stereo not shown) [Compound A45] | > 2000 nM |
| Cc1ncsc1-c1ccc(CNC(=O)[C@@H]2C[C@@H](O)CN2C(=O)[C@@H](NC(=O)COc2ccc(-c3ccc(N4C(=S)N(c5ccc(C#N)c(C(F)(F)F)c5F)C(=O)C4(C)C)cn3)cc2)C(C)(C)C)cc1 [Compound A48] | > 2000 nM |
| Cc1ncsc1-c1ccc(CNC(=O)[C@@H]2C[C@@H](O)CN2C(=O)[C@@H](NC(=O)CCCCCNC(=O)c2ccc(-c3ccc(N4C(=S)N(c5ccc(C#N)c(C(F)(F)F)c5F)C(=O)C4(C)C)cn3)cc2)C(C)(C)C)cc1 [Compound A53] | 149 nM |
| Cc1ncsc1-c1ccc(CNC(=O)[C@@H]2C[C@@H](O)CN2C(=O)[C@@H](NC(=O)CCN2CCC(NC(=O)c3ccc(-c4ccc(N5C(=S)N(c6ccc(C#N)c(C(F)(F)F)c6F)C(=O)C5(C)C)cn4)cc3)C2)C(C)(C)C)cc1 (stereo partly shown) [Compound A56] | 704 nM |
| Cc1ncsc1-c1ccc(CNC(=O)[C@@H]2C[C@@H](O)CN2C(=O)[C@@H](NC(=O)CCN2CCN(C(=O)c3ccc(-c4ccc(N5C(=S)N(c6ccc(C#N)c(C(F)(F)F)c6F)C(=O)C5(C)C)cn4)cc3)CC2)C(C)(C)C)cc1 [Compound A58] | 133 nM |
| Cc1ncsc1-c1ccc(CNC(=O)[C@@H]2C[C@@H](O)CN2C(=O)[C@@H](NC(=O)[C@H]2CC[C@H](CNC(=O)c3ccc(-c4ccc(N5C(=S)N(c6ccc(C#N)c(C(F)(F)F)c6F)C(=O)C5(C)C)cn4)cc3)CC2)C(C)(C)C)cc1 [Compound A59] | 48.6 nM |
| Cc1ncsc1-c1ccc(CNC(=O)[C@@H]2C[C@@H](O)CN2C(=O)[C@@H](NC(=O)c2ccc(CNC(=O)c3ccc(-c4ccc(N5C(=S)N(c6ccc(C#N)c(C(F)(F)F)c6F)C(=O)C5(C)C)cn4)cc3)cc2)C(C)(C)C)cc1 [Compound A60] | 82.9 nM |
| Cc1ncsc1-c1ccc(CNC(=O)[C@@H]2C[C@@H](O)CN2C(=O)[C@@H](NC(=O)C2CCN(C3CCN(C(=O)c4ccc(-c5ccc(N6C(=S)N(c7ccc(C#N)c(C(F)(F)F)c7F)C(=O)C6(C)C)cn5)cc4)CC3)CC2)C(C)(C)C)cc1 [Compound A61] | 268 nM |
| Cc1ncsc1-c1ccc(CNC(=O)[C@@H]2C[C@@H](O)CN2C(=O)[C@@H](NC(=O)CCCN2CC(Oc3ccc(-c4ccc(N5C(=S)N(c6ccc(C#N)c(C(F)(F)F)c6F)C(=O)C5(C)C)cn4)cc3)C2)C(C)(C)C)cc1 [Compound A64] | 233 nM |
